Where “and” joins values, the source holds several entries; their conditions need not be identical. Identical values can stand only once. Toxic doses and inconclusive results are not listed.
Tested on: P388 leukemia ip, CD2F1 mice, survival T/C
Experiment: NCI In Vivo Anticancer Drug Screen. Data for tumor model P388 Leukemia (intraperitoneal) in CD2F1 (CDF1) mice
Conditions: endpoint: median survival time, higher = longer survival
Summary of the method: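 Mice carrying the transplanted tumor received test compound or vehicle. Survival was recorded in each group, and the value is the treated-group measurement divided by that of the vehicle-treated control group.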

[1] = dose: 50.0 mg/kg/injection, schedule: Q01DX005 (ip), vehicle: Klucel (hydroxypropylcellulose) (HPC)
[2] = dose: 100.0 mg/kg/injection, schedule: Q01DX005 (ip), vehicle: Klucel (hydroxypropylcellulose) (HPC)
[3] = dose: 200.0 mg/kg/injection, schedule: Q01DX005 (ip), vehicle: Klucel (hydroxypropylcellulose) (HPC)
[4] = dose: 50.0 mg/kg/injection, schedule: Q01DX009 (ip), vehicle: saline with Tween-80
[5] = dose: 100.0 mg/kg/injection, schedule: Q01DX009 (ip), vehicle: saline with Tween-80
[6] = dose: 50.0 mg/kg/injection, schedule: Q01DX005 (ip), vehicle: saline with Tween-80
[7] = dose: 100.0 mg/kg/injection, schedule: Q01DX005 (ip), vehicle: saline with Tween-80
[8] = dose: 12.5 mg/kg/injection, schedule: Q01DX005 (ip), vehicle: Klucel (hydroxypropylcellulose) (HPC)
[9] = dose: 25.0 mg/kg/injection, schedule: Q01DX005 (ip), vehicle: Klucel (hydroxypropylcellulose) (HPC)
[10] = dose: 200.0 mg/kg/injection, schedule: Q01DX009 (ip), vehicle: saline with Tween-80
[11] = dose: 12.5 mg/kg/injection, schedule: Q01DX009 (ip), vehicle: saline with Tween-80
[12] = dose: 25.0 mg/kg/injection, schedule: Q01DX009 (ip), vehicle: saline with Tween-80
[13] = dose: 60.0 mg/kg/injection, schedule: Q01DX005 (ip), vehicle: Klucel (hydroxypropylcellulose) (HPC)
[14] = dose: 120.0 mg/kg/injection, schedule: Q01DX005 (ip), vehicle: Klucel (hydroxypropylcellulose) (HPC)
[15] = dose: 12.5 mg/kg/injection, schedule: Q01DX005 (ip), vehicle: saline with Tween-80
[16] = dose: 25.0 mg/kg/injection, schedule: Q01DX005 (ip), vehicle: saline with Tween-80
[17] = dose: 50.0 mg/kg/injection, schedule: Q01DX009 (ip), vehicle: Klucel (hydroxypropylcellulose) (HPC)
[18] = dose: 100.0 mg/kg/injection, schedule: Q01DX009 (ip), vehicle: Klucel (hydroxypropylcellulose) (HPC)
[19] = dose: 50.0 mg/kg/injection, schedule: Q01DX005 (ip), vehicle: saline
[20] = dose: 100.0 mg/kg/injection, schedule: Q01DX005 (ip), vehicle: saline
[21] = dose: 60.0 mg/kg/injection, schedule: Q01DX005 (ip), vehicle: saline with Tween-80
[22] = dose: 120.0 mg/kg/injection, schedule: Q01DX005 (ip), vehicle: saline with Tween-80
[23] = dose: 240.0 mg/kg/injection, schedule: Q01DX005 (ip), vehicle: saline with Tween-80

O=c1cc(-c2ccccc2)oc2c1CCCC2
T/C [1]: 101 % of control
T/C [2]: 97 % of control
T/C [3]: 101 % of control

N#Cc1c(NC(=O)Nc2ccc(F)cc2F)sc(=S)c2c1CCCC2
T/C [4]: 100 % of control
T/C [5]: 99 % of control

CCOC(=O)Nc1cc2c(c(N)n1)N=C(c1ccc(N)cc1)CN2
T/C (dose: 25.0 mg/kg/injection, schedule: Q01DX001 (ip), vehicle: saline): 117 % of control

COC(=O)C1=[N+]([O-])OC(C(=O)OC)C1c1ccc(NC(C)=O)cc1 (stereo not given)
T/C [6]: 98 % of control
T/C [7]: 93 % of control
T/C (dose: 200.0 mg/kg/injection, schedule: Q01DX005 (ip), vehicle: saline with Tween-80): 90 % of control

Cn1cc(NC(=O)c2cc(NC(=O)c3cc(NC=O)cn3C)cn2C)cc1C(=O)O
T/C [8]: 100 % of control
T/C [9]: 100 % of control
T/C [1]: 107 % of control

CC(=O)OCC1OC(n2ncc(=S)[nH]c2=O)C2OC(C)(C)OC12 (stereo not given)
T/C [4]: 92 % of control
T/C [5]: 95 % of control
T/C [10]: 97 % of control

N=C(N)SCCCCCCCCCCSC(=N)N
T/C [11]: 100 % of control and 90 % of control
T/C [12]: 98 % of control and 100 % of control
T/C [4]: 106 % of control

COc1ccc2c(c1)OC(C)(C)C(c1ccccc1)=C2c1ccc(OCCBr)cc1
T/C [1]: 101 % of control
T/C [2]: 98 % of control
T/C [3]: 100 % of control

CC1(C)OC(=O)N=C1c1ccc(Br)cc1
T/C [13]: 100 % of control
T/C [14]: 104 % of control

CC1(c2ccc(S(=O)(=O)c3ccccc3)cc2)OC(=O)C=CC1=O (stereo not given)
T/C (dose: 6.25 mg/kg/injection, schedule: Q01DX005 (ip), vehicle: saline with Tween-80): 89 % of control
T/C [15]: 89 % of control
T/C [16]: 115 % of control
T/C [6]: 120 % of control

Cc1nc2c(ccc3cc4ccccc4cc32)cc1N(CCO)CCO
T/C (dose: 50.0 mg/kg/injection, schedule: Q01DX009 (ip), vehicle: saline + Tween-80 + alcohol): 110 % of control
T/C (dose: 100.0 mg/kg/injection, schedule: Q01DX009 (ip), vehicle: saline + Tween-80 + alcohol): 108 % of control
T/C (dose: 200.0 mg/kg/injection, schedule: Q01DX009 (ip), vehicle: saline + Tween-80 + alcohol): 99 % of control

c1ccc(Nc2ccc(CN3CCCCC3)cc2)cc1
T/C [13]: 93 % of control
T/C [14]: 99 % of control
T/C (dose: 240.0 mg/kg/injection, schedule: Q01DX005 (ip), vehicle: Klucel (hydroxypropylcellulose) (HPC)): 87 % of control

CCC1=CC2CN(CCc3c([nH]c4ccccc34)C(C(=O)OC)(c3cc4c(cc3OC)N(C)C3C(C(=O)OC)=CC5(CC)CCCN6CCC43C65)C2)C1 (stereo not given)
T/C (dose: 12.5 mg/kg/injection, schedule: Q01DX001 (ip), vehicle: water): 100 % of control
T/C (dose: 25.0 mg/kg/injection, schedule: Q01DX001 (ip), vehicle: water): 100 % of control
T/C (dose: 50.0 mg/kg/injection, schedule: Q01DX001 (ip), vehicle: water): 112 % of control
T/C (dose: 100.0 mg/kg/injection, schedule: Q01DX001 (ip), vehicle: water): 100 % of control
T/C (dose: 200.0 mg/kg/injection, schedule: Q01DX001 (ip), vehicle: water): 100 % of control

COc1cccc(C)c1C(O)CC1CCCN1 (stereo not given)
T/C [17]: 106 % of control
T/C [18]: 102 % of control

CN(C)CCNC1c2ccccc2CCc2ccccc21
T/C [19]: 104 % of control
T/C [20]: 100 % of control

O=C(O)C1(N(CCO)CCO)CCCC1
T/C [19]: 104 % of control
T/C [20]: 100 % of control
T/C (dose: 200.0 mg/kg/injection, schedule: Q01DX005 (ip), vehicle: saline): 106 % of control

Cc1cc2nc(CC(=O)c3ccccc3)c(CC(=O)c3ccccc3)nc2cc1C
T/C (dose: 7.5 mg/kg/injection, schedule: Q01DX005 (ip), vehicle: saline with Tween-80): 98 % of control
T/C (dose: 15.0 mg/kg/injection, schedule: Q01DX005 (ip), vehicle: saline with Tween-80): 95 % of control

COc1ccc(Cc2cc(N=NC(N)=O)c(OC)cc2O)cc1
T/C [15]: 93 % of control
T/C [16]: 87 % of control
T/C [6]: 88 % of control

COC(=O)c1cc2cc3c(c(O)c2c(=O)o1)OC1(Cc2c(O)c4c(c(O)c2O1)C(=O)C(OC)CC4=O)CC3O (stereo not given)
T/C [11]: 93 % of control
T/C [12]: 100 % of control
T/C [4]: 116 % of control

COc1ccc(Cl)c(C)c1C(=O)OC1CC(OC2C(O)CC(OC3CCCC4C3C=CC3CCCC/C=C/C5C=C(C(=O)O)C(C)CC56OC(=O)C(=C6O)OC(=O)C34C)OC2C)OC(C)C1O (stereo not given)
T/C (dose: 25.0 mg/kg/injection, schedule: Q01DX009 (ip), vehicle: Klucel (hydroxypropylcellulose) (HPC)): 103 % of control
T/C [17]: 97 % of control
T/C [18]: 89 % of control

[O-][n+]1nc(Cl)nc2ccccc21
T/C (dose: 10.0 mg/kg/injection, schedule: Q01DX009 (ip), vehicle: Klucel (hydroxypropylcellulose) (HPC)): 105 % of control
T/C (dose: 20.0 mg/kg/injection, schedule: Q01DX009 (ip), vehicle: Klucel (hydroxypropylcellulose) (HPC)): 107 % of control

CCCNP1(NCCC)=NP(NCCC)(NCCC)=NP(NCCC)(NCCC)=NP(NCCC)(NCCC)=N1
T/C [15]: 104 % of control
T/C [16]: 99 % of control
T/C [6]: 100 % of control and 104 % of control

CCC(O)(C(=O)O)c1cc[n+](Cc2cnc3ccccc3c2)cc1C (stereo not given)
T/C [8]: 96 % of control
T/C [9]: 86 % of control
T/C [1]: 100 % of control

CCCN(CCC)CCSC(=S)NCCOC
T/C (dose: 100.0 mg/kg/injection, schedule: Q04DX003 (ip), vehicle: saline with Tween-80): 100 % of control
T/C (dose: 200.0 mg/kg/injection, schedule: Q04DX003 (ip), vehicle: saline with Tween-80): 100 % of control

CCCCCCCCCCC[CH2][Sn]([CH3])([CH3])[O]C(C)=O
T/C (dose: 12.5 mg/kg/injection, schedule: Q01DX009 (ip), vehicle: saline): 99 % of control
T/C (dose: 25.0 mg/kg/injection, schedule: Q01DX009 (ip), vehicle: saline): 99 % of control
T/C (dose: 50.0 mg/kg/injection, schedule: Q01DX009 (ip), vehicle: saline): 94 % of control

CSC1=NC=C(C#N)C2=NC(c3cccs3)NN12 (stereo not given)
T/C [21]: 118 % of control
T/C [22]: 99 % of control
T/C [23]: 96 % of control

CN=Nc1c(O)[nH]c2ccc(C)cc12
T/C [21]: 96 % of control
T/C [22]: 98 % of control
T/C [23]: 92 % of control

Cn1ccnc1CC(C)(O)c1ccccc1 (stereo not given)
T/C [21]: 103 % of control
T/C [22]: 104 % of control
T/C [23]: 108 % of control

O/N=C(/C=N/O)SCCSC(/C=N/O)=N/O
T/C [1]: 110 % of control
T/C [2]: 109 % of control
T/C [3]: 112 % of control

Cc1nc(C(=O)O)cc(Cl)c1C
T/C (dose: 12.5 mg/kg/injection, schedule: Q01DX009 (ip), vehicle: distilled water + Tween-80): 100 % of control
T/C (dose: 25.0 mg/kg/injection, schedule: Q01DX009 (ip), vehicle: distilled water + Tween-80): 100 % of control
T/C (dose: 50.0 mg/kg/injection, schedule: Q01DX009 (ip), vehicle: distilled water + Tween-80): 96 % of control
T/C (dose: 100.0 mg/kg/injection, schedule: Q01DX009 (ip), vehicle: distilled water + Tween-80): 100 % of control
T/C (dose: 200.0 mg/kg/injection, schedule: Q01DX009 (ip), vehicle: distilled water + Tween-80): 96 % of control

Cc1oc(C)c2c1C(=O)N(C)C2=O
T/C [21]: 100 % of control
T/C [22]: 100 % of control
T/C [23]: 103 % of control

CC1=NN(C(=O)c2ccncc2)C(=O)C1N=Nc1ccc(S(=O)(=O)Nc2nccs2)cc1 (stereo not given)
T/C [4]: 102 % of control
T/C [5]: 97 % of control
T/C [10]: 96 % of control

NP(N)(=O)NC(=O)c1ccc(F)cc1
T/C [6]: 100 % of control
T/C [7]: 100 % of control

Cc1cnc(C)n2cnnc12
T/C (dose: 100.0 mg/kg/injection, schedule: Q04DX003 (ip), vehicle: saline): 93 % of control
T/C (dose: 200.0 mg/kg/injection, schedule: Q04DX003 (ip), vehicle: saline): 95 % of control
T/C (dose: 400.0 mg/kg/injection, schedule: Q04DX003 (ip), vehicle: saline): 98 % of control

CC(S)c1ccccc1 (stereo not given)
T/C [4]: 115 % of control
T/C [5]: 113 % of control
T/C [10]: 115 % of control

— PubChem BioAssay AID330 (DTP/NCI, 2004)
